In ChEMBL document CHEMBL3885881, “DrugMatrix”:

What was measured:
Rattus norvegicus [1] = organism: Rattus norvegicus; assay: DrugMatrix - Regimen: Daily Repeat; assay type: toxicity, organism-based, Sprague-Dawley; parameters: regimen Daily Repeat, gender Male, age 6-8 weeks; conditions: in vivo, po, 1200 mg/kg, […], route oral GAVAGE, dose level High, time 14 day
Rattus norvegicus [2] = organism: Rattus norvegicus; assay type: toxicity, organism-based, Sprague-Dawley; conditions: in vivo, po, 24 h, route oral GAVAGE, time 1 day, […]; for MEAN CORPUSCULAR HEMOGLOBIN CONCENTRATION / MEAN CORPUSCULAR VOLUME / ABSOLUTE BASOPHIL / ABSOLUTE EOSINOPHIL / ABSOLUTE LYMPHOCYTE / ABSOLUTE MONOCYTE / BASOPHIL / EOSINOPHIL / ERYTHROCYTE COUNT / HEMATOCRIT / HEMOGLOBIN / LEUKOCYTE COUNT / LYMPHOCYTE / MEAN CORPUSCULAR HEMOGLOBIN / MONOCYTE / NEUTROPHIL / PLATELET COUNT: tissue Blood; for ALANINE AMINOTRANSFERASE / ALBUMIN / ALKALINE PHOSPHATASE / ASPARTATE AMINOTRANSFERASE / BLOOD UREA NITROGEN / CARBON DIOXIDE / CHLORIDE / CHOLESTEROL / CREATINE PHOSPHOKINASE / CREATININE / GLUCOSE / LACTATE DEHYDROGENASE / LIPASE / PHOSPHORUS / POTASSIUM / SODIUM / TOTAL BILIRUBIN / TOTAL PROTEIN / URIC ACID: tissue Plasma
Description: DrugMatrix - Regimen: Single

[3] = 0 mg/kg, vehicle control, dose level Control

With CC[C@H](C)C(=O)O[C@H]1C[C@H](O)C=C2C=C[C@H](C)[C@H](CC[C@@H](O)C[C@@H](O)CC(=O)O)[C@H]21 [PRAVASTATIN] the MONOCYTE (Rattus norvegicus [1]; tissue Blood) was 6.57%, the NEUTROPHIL (Rattus norvegicus [1]; tissue Blood) was 58.53% and the “PLATELET COUNT” value (Rattus norvegicus [1]; tissue Blood) was 1135 x10E3/uL. For the same molecule, the “ALANINE AMINOTRANSFERASE” value (Rattus norvegicus [1]; tissue Plasma) was 669.33 u/L, the ALBUMIN (Rattus norvegicus [1]; tissue Plasma) was 3.17 G/DL and the “ALKALINE PHOSPHATASE” value (Rattus norvegicus [1]; tissue Plasma) was 461 u/L. For the same molecule, the “ASPARTATE AMINOTRANSFERASE” value (Rattus norvegicus [1]; tissue Plasma) was 5256.67 u/L, the “BLOOD UREA NITROGEN” value (Rattus norvegicus [1]; tissue Plasma) was 60.67 mg/dL and the “CARBON DIOXIDE” value (Rattus norvegicus [1]; tissue Plasma) was 33.33 mmol/L. The CHLORIDE (Rattus norvegicus [1]; tissue Plasma) was 95.67 MEQ/L, the CHOLESTEROL (Rattus norvegicus [1]; tissue Plasma) was 47 mg/dL and the “CREATINE PHOSPHOKINASE” value (Rattus norvegicus [1]; tissue Plasma) was 10626.67 u/L. For the same molecule, the CREATININE (Rattus norvegicus [1]; tissue Plasma) was 0.97 mg/dL, the GLUCOSE (Rattus norvegicus [1]; tissue Plasma) was 113.67 mg/dL and the “LACTATE DEHYDROGENASE” value (Rattus norvegicus [1]; tissue Plasma) was 1229.67 u/L. The LIPASE (Rattus norvegicus [1]; tissue Plasma) was 228.5 u/L, the PHOSPHORUS (Rattus norvegicus [1]; tissue Plasma) was 11.03 mg/dL and the POTASSIUM (Rattus norvegicus [1]; tissue Plasma) was 6.93 MEQ/L. For the same molecule, the SODIUM (Rattus norvegicus [1]; tissue Plasma) was 141 MEQ/L, the “TOTAL BILIRUBIN” value (Rattus norvegicus [1]; tissue Plasma) was 0.3 mg/dL and the “TOTAL PROTEIN” value (Rattus norvegicus [1]; tissue Plasma) was 5.53 G/DL. The “URIC ACID” value (Rattus norvegicus [1]; tissue Plasma) was 1.53 mg/dL, the “MEAN CORPUSCULAR HEMOGLOBIN CONCENTRATION” value (Rattus norvegicus [2]; 0 mg/kg, dose level Control) was 30.5 G/DL and the “MEAN CORPUSCULAR VOLUME” value (Rattus norvegicus [2]; 0 mg/kg, dose level Control) was 67.21 fL. The ABSOLUTE BASOPHIL (Rattus norvegicus [2]; [3]) was 50 cells/µL, the ABSOLUTE EOSINOPHIL (Rattus norvegicus [2]; [3]) was 32.5 cells/µL and the ABSOLUTE LYMPHOCYTE (Rattus norvegicus [2]; [3]) was 7980 cells/µL. It also gave an ABSOLUTE MONOCYTE (Rattus norvegicus [2]; [3]) of 170 cells/µL, a BASOPHIL (Rattus norvegicus [2]; [3]) of 0.58% and an EOSINOPHIL (Rattus norvegicus [2]; [3]) of 0.34%. The “ERYTHROCYTE COUNT” value (Rattus norvegicus [2]; [3]) was 6.56 x10E6/uL, the HEMATOCRIT (Rattus norvegicus [2]; [3]) was 44.14% and the HEMOGLOBIN (Rattus norvegicus [2]; [3]) was 13.45 G/DL. For the same molecule, the “LEUKOCYTE COUNT” value (Rattus norvegicus [2]; [3]) was 9.51 x10E3/uL, the LYMPHOCYTE (Rattus norvegicus [2]; [3]) was 83.6% and the “MEAN CORPUSCULAR HEMOGLOBIN” value (Rattus norvegicus [2]; [3]) was 20.5 pg. The MONOCYTE (Rattus norvegicus [2]; [3]) was 1.86%, the NEUTROPHIL (Rattus norvegicus [2]; [3]) was 12.7% and the “PLATELET COUNT” value (Rattus norvegicus [2]; [3]) was 1240.38 x10E3/uL. The “ALANINE AMINOTRANSFERASE” value (Rattus norvegicus [2]; [3]) was 47.12 u/L, the ALBUMIN (Rattus norvegicus [2]; [3]) was 3.59 G/DL and the “ALKALINE PHOSPHATASE” value (Rattus norvegicus [2]; [3]) was 461.38 u/L. The “ASPARTATE AMINOTRANSFERASE” value (Rattus norvegicus [2]; [3]) was 62.25 u/L, the “BLOOD UREA NITROGEN” value (Rattus norvegicus [2]; [3]) was 12.63 mg/dL and the “CARBON DIOXIDE” value (Rattus norvegicus [2]; [3]) was 39.5 mmol/L. For the same molecule, the CHLORIDE (Rattus norvegicus [2]; [3]) was 105.38 MEQ/L, the CHOLESTEROL (Rattus norvegicus [2]; [3]) was 74.25 mg/dL and the “CREATINE PHOSPHOKINASE” value (Rattus norvegicus [2]; [3]) was 282.88 u/L. The CREATININE (Rattus norvegicus [2]; [3]) was 0.61 mg/dL, the GLUCOSE (Rattus norvegicus [2]; [3]) was 176.25 mg/dL and the “LACTATE DEHYDROGENASE” value (Rattus norvegicus [2]; [3]) was 190.25 u/L. It also gave an LIPASE (Rattus norvegicus [2]; [3]) of 28 u/L, a PHOSPHORUS (Rattus norvegicus [2]; [3]) of 12.68 mg/dL and a POTASSIUM (Rattus norvegicus [2]; [3]) of 6.6 MEQ/L. The SODIUM (Rattus norvegicus [2]; [3]) was 151.13 MEQ/L, the “TOTAL BILIRUBIN” value (Rattus norvegicus [2]; [3]) was 0.34 mg/dL and the “TOTAL PROTEIN” value (Rattus norvegicus [2]; [3]) was 6.09 G/DL. The “URIC ACID” value (Rattus norvegicus [2]; [3]) was 1.06 mg/dL, the ABSOLUTE BASOPHIL (Rattus norvegicus [2]; 1200 mg/kg, dose level High) was 12.5 cells/µL and the ABSOLUTE EOSINOPHIL (Rattus norvegicus [2]; 1200 mg/kg, dose level High) was 41.3 cells/µL. It also gave an ABSOLUTE LYMPHOCYTE (Rattus norvegicus [2]; 1200 mg/kg, dose level High) of 7270 cells/µL, an ABSOLUTE MONOCYTE (Rattus norvegicus [2]; 1200 mg/kg, dose level High) of 270 cells/µL and a BASOPHIL (Rattus norvegicus [2]; 1200 mg/kg, dose level High) of 0.35%. The EOSINOPHIL (Rattus norvegicus [2]; 1200 mg/kg, dose level High) was 0.46%, the “ERYTHROCYTE COUNT” value (Rattus norvegicus [2]; 1200 mg/kg, dose level High) was 6.38 x10E6/uL and the HEMATOCRIT (Rattus norvegicus [2]; 1200 mg/kg, dose level High) was 42.34%. For the same molecule, the HEMOGLOBIN (Rattus norvegicus [2]; 1200 mg/kg, dose level High) was 12.95 G/DL, the “LEUKOCYTE COUNT” value (Rattus norvegicus [2]; 1200 mg/kg, dose level High) was 9.2 x10E3/uL and the LYMPHOCYTE (Rattus norvegicus [2]; 1200 mg/kg, dose level High) was 78.89%. The “MEAN CORPUSCULAR HEMOGLOBIN” value (Rattus norvegicus [2]; 1200 mg/kg, dose level High) was 20.29 pg, the “MEAN CORPUSCULAR HEMOGLOBIN CONCENTRATION” value (Rattus norvegicus [2]; 1200 mg/kg, dose level High) was 30.55 G/DL and the “MEAN CORPUSCULAR VOLUME” value (Rattus norvegicus [2]; 1200 mg/kg, dose level High) was 66.41 fL. The MONOCYTE (Rattus norvegicus [2]; 1200 mg/kg, dose level High) was 2.9%, the NEUTROPHIL (Rattus norvegicus [2]; 1200 mg/kg, dose level High) was 16.21% and the “PLATELET COUNT” value (Rattus norvegicus [2]; 1200 mg/kg, dose level High) was 1234.38 x10E3/uL. For the same molecule, the “ALANINE AMINOTRANSFERASE” value (Rattus norvegicus [2]; 1200 mg/kg, dose level High) was 73.25 u/L, the ALBUMIN (Rattus norvegicus [2]; 1200 mg/kg, dose level High) was 3.64 G/DL and the “ALKALINE PHOSPHATASE” value (Rattus norvegicus [2]; 1200 mg/kg, dose level High) was 563.12 u/L. The “ASPARTATE AMINOTRANSFERASE” value (Rattus norvegicus [2]; 1200 mg/kg, dose level High) was 74.62 u/L, the “BLOOD UREA NITROGEN” value (Rattus norvegicus [2]; 1200 mg/kg, dose level High) was 12.25 mg/dL and the “CARBON DIOXIDE” value (Rattus norvegicus [2]; 1200 mg/kg, dose level High) was 36.62 mmol/L. For the same molecule, the CHLORIDE (Rattus norvegicus [2]; 1200 mg/kg, dose level High) was 108 MEQ/L, the CHOLESTEROL (Rattus norvegicus [2]; 1200 mg/kg, dose level High) was 74.87 mg/dL and the “CREATINE PHOSPHOKINASE” value (Rattus norvegicus [2]; 1200 mg/kg, dose level High) was 344.5 u/L. For the same molecule, the CREATININE (Rattus norvegicus [2]; 1200 mg/kg, dose level High) was 0.67 mg/dL, the GLUCOSE (Rattus norvegicus [2]; 1200 mg/kg, dose level High) was 193.13 mg/dL and the “LACTATE DEHYDROGENASE” value (Rattus norvegicus [2]; 1200 mg/kg, dose level High) was 126.88 u/L. It also gave an LIPASE (Rattus norvegicus [2]; 1200 mg/kg, dose level High) of 34.88 u/L, a PHOSPHORUS (Rattus norvegicus [2]; 1200 mg/kg, dose level High) of 12.5 mg/dL and a POTASSIUM (Rattus norvegicus [2]; 1200 mg/kg, dose level High) of 6.55 MEQ/L. For the same molecule, the SODIUM (Rattus norvegicus [2]; 1200 mg/kg, dose level High) was 153.75 MEQ/L, the “TOTAL BILIRUBIN” value (Rattus norvegicus [2]; 1200 mg/kg, dose level High) was 0.27 mg/dL and the “TOTAL PROTEIN” value (Rattus norvegicus [2]; 1200 mg/kg, dose level High) was 6.12 G/DL. For the same molecule, the “URIC ACID” value (Rattus norvegicus [2]; 1200 mg/kg, dose level High) was 1.09 mg/dL.
